# Patent US11912686B2 (Gilead Sciences, Inc., priority 2020, dated 2024)
# Target: human LPAR1 (Homo sapiens (Human), UniProt Q92633)
# Test: LPAR1 intracellular calcium mobilization assay (antagonist mode, FLIPR)
# Type: cell-based
# Conditions: CHO-K1 EDG2 cells expressing human LPAR1, LPA 18:2 at EC80 (100 nM), test compound 0.5 nM to 10 μM
# human LPAR1, sequence (Q92633 whole entry): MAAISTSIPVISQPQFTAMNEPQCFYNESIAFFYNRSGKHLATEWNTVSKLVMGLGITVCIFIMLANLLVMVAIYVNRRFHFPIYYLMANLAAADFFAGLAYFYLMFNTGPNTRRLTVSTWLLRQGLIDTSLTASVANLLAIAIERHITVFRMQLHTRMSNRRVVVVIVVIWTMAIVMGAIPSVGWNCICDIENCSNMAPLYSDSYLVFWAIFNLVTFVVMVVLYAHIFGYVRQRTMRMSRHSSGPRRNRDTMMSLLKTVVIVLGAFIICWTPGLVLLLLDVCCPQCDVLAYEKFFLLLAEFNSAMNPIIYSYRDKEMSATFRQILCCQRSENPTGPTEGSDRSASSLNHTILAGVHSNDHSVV
row,SMILES,EC50
1,"COc1cc(C(=O)Nc2ccc(-c3nnn(C)c3NC(=O)O[C@H](C)c3cc(F)cnc3F)nc2)on1 [Compound 281, (R)-1-(2,5-difluoropyridin-3-yl)ethyl (4-(5-(3-methoxyisoxazole-5-carboxamido)pyridin-2-yl)-1-methyl-1H-1,2,3-triazol-5-yl)carbamate]",86.6 nM
2,"C[C@@H](OC(=O)Nc1c(-c2ccc(NC(=O)c3cnc(N(C)C)nc3)cn2)nnn1C)c1cc(F)cnc1F [Compound 282, (R)-1-(2,5-difluoropyridin-3-yl)ethyl (4-(5-(2-(dimethylamino)pyrimidine-5-carboxamido)pyridin-2-yl)-1-methyl-1H-1,2,3-triazol-5-yl)carbamate]",1190 nM
3,"C[C@@H](OC(=O)Nc1c(-c2ccc(NC(=O)c3cnc(C4CC4)nc3)cn2)nnn1C)c1cc(F)cnc1F [Compound 283, (R)-1-(2,5-difluoropyridin-3-yl)ethyl (4-(5-(2-cyclopropylpyrimidine-5-carboxamido)pyridin-2-yl)-1-methyl-1H-1,2,3-triazol-5-yl)carbamate]",82.4 nM
4,"C[C@@H](OC(=O)Nc1c(-c2ccc(NC(=O)c3cnc(N4CCOCC4)nc3)cn2)nnn1C)c1cc(F)cnc1F [Compound 284, (R)-1-(2,5-difluoropyridin-3-yl)ethyl (1-methyl-4-(5-(2-morpholinopyrimidine-5-carboxamido)pyridin-2-yl)-1H-1,2,3-triazol-5-yl)carbamate]",908 nM
5,"C[C@@H](OC(=O)Nc1c(-c2ncc(NC(=O)[C@]3(C#N)C[C@H]3C(F)F)cn2)nnn1C)c1cc(F)cnc1Cl [Compound 286, (R)-1-(2-chloro-5-fluoropyridin-3-yl)ethyl (4-(5-((1R,2R)-1-cyano-2-(difluoromethyl)cyclopropane-1-carboxamido)pyrimidin-2-yl)-1-methyl-1H-1,2,3-triazol-5-yl)carbamate]",104 nM
6,"C[C@@H](OC(=O)Nc1c(-c2ncc(NC(=O)[C@@]3(C#N)C[C@@H]3C(F)F)cn2)nnn1C)c1cc(F)cnc1Cl [Compound 287, (R)-1-(2-chloro-5-fluoropyridin-3-yl)ethyl (4-(5-((1S,2S)-1-cyano-2-(difluoromethyl)cyclopropane-1-carboxamido)pyrimidin-2-yl)-1-methyl-1H-1,2,3-triazol-5-yl)carbamate]",1430 nM
7,"C[C@@H](OC(=O)Nc1c(-c2ccc(NC(=O)c3ccc(C(F)(F)F)nc3)cn2)nnn1C)c1cc(F)cnc1Cl [Compound 288, (R)-1-(2-chloro-5-fluoropyridin-3-yl)ethyl (1-methyl-4-(5-(6-(trifluoromethyl)nicotinamido)pyridin-2-yl)-1H-1,2,3-triazol-5-yl)carbamate]",33.5 nM
8,"C[C@@H](OC(=O)Nc1c(-c2ccc(NC(=O)c3cnc(C(F)F)nc3)cn2)nnn1C)c1cc(F)cnc1Cl [Compound 289, (R)-1-(2-chloro-5-fluoropyridin-3-yl)ethyl (4-(5-(2-(difluoromethyl)pyrimidine-5-carboxamido)pyridin-2-yl)-1-methyl-1H-1,2,3-triazol-5-yl)carbamate]",21.5 nM
9,"C[C@@H](OC(=O)Nc1c(-c2ccc(NC(=O)c3cnc(C(F)(F)F)nc3)cn2)nnn1C)c1cc(F)cnc1Cl [Compound 290, (R)-1-(2-chloro-5-fluoropyridin-3-yl)ethyl (1-methyl-4-(5-(2-(trifluoromethyl)pyrimidine-5-carboxamido)pyridin-2-yl)-1H-1,2,3-triazol-5-yl)carbamate]",10.9 nM
10,"C[C@@H](OC(=O)Nc1c(-c2ccc(NC(=O)C3(C)CC(F)(F)C3)cn2)nnn1C)c1cccnc1F [Compound 291, (R)-1-(2-fluoropyridin-3-yl)ethyl (4-(5-(3,3-difluoro-1-methylcyclobutane-1-carboxamido)pyridin-2-yl)-1-methyl-1H-1,2,3-triazol-5-yl)carbamate]",157 nM
11,"C[C@@H](OC(=O)Nc1c(-c2ccc(NC(=O)c3ccc(Cl)nc3)cn2)nnn1C)c1cccnc1F [Compound 292, (R)-1-(2-fluoropyridin-3-yl)ethyl (4-(5-(6-chloronicotinamido)pyridin-2-yl)-1-methyl-1H-1,2,3-triazol-5-yl)carbamate]",143 nM
